Test results published in PubChem BioAssay AID2060886 (Molecular Pharmacology Branch, DTP, NCI, 2025).

System: 653999-131-R-J2-PDC complex spheroids, growth inhibition
Assay: Anticancer human tumor 653999-131-R-J2-PDC patient-derived lung adenocarcinoma cell line growth inhibition [RAS]
Details: for IC50: curve of first compound; for viability, T/C: stronger effect = lower value
Text: RAS pathway inhibitors in Combinations in Complex Spheroids
A high-throughput screen of multi-cell type tumor spheroids was designed to identify active combinations of RAS pathway inhibitors and targeted small molecules. Complex spheroids include a stromal component modeled by human endothelial cells (HUVEC) and fibroblasts modeled by human mesenchymal stem cells (MSCs). The concentration ranges selected for each drug and investigational agent were based upon clinically achievable concentrations if the clinical Cmax of the agent was known.
Compounds. The drugs and investigational agents: abemaciclib (NSC768073), cobimetinib (NSC768068), divarasib (GDC6063, NSC841802), docetaxel (NSC628503), GDC-1971 (RLY-1971, NSC841576), gemcitabine (NSC613327), inavolisib (NSC800729), ipatasertib (NSC767898), KB-0742 (NSC834161), MRTX-1133 (NSC836407), osimertinib (NSC779217), RMC-4630 (NSC839698), RMC-6236 (NSC851965), RMC-6291 (NSC852671), Ro-3306 (NSC812927), sapanisertib (NSC764658), SN-38 (NSC673596), staurosporine (NSC755774), SY5609 (NSC837396), and tovorafenib (DAY101, NSC766906), were obtained from the National Cancer Institute (NCI) Developmental Therapeutics Program Chemical Repository. The FDA-approved anticancer drug set is available from the NCI Developmental Therapeutics Program. […] The stock solutions were prepared in dimethyl sulfoxide (DMSO, Sigma-Aldrich, St. Louis, MO, cat. D2650) at 800-fold the tested concentration and stored at -70 degrees C prior to their use. All drugs and investigational agents were tested over a range starting from a high concentration at or near the clinical Cmax and decreasing in half-log increments. If the clinical Cmax for an agent had not been determined, the highest concentration tested was 10 microM.
Cell Culture. All cells were maintained in an incubator at 37 degrees C and 5% CO2 with 95% humidity. The PDC lines were cultured according to standard operating procedures established by the NCI PDMR. All PDCs were thawed and cultured in Matrigel-coated flasks prepared with a working solution of 1X Ham's F-12 nutrient mix, without supplementation (Invitrogen, Waltham, MA, cat. 11765054), 100 U/mL penicillin-streptomycin (Invitrogen, cat. 15140122), and 2.5% Matrigel (Corning Inc., Corning, NY, cat. 354248) for the first three passages. The 362531-283-R-J2-PDC and 782815-120-R-J1-PDC lines were cultured in 6C/Colon 1B media, which includes advanced DMEM/F-12 (Thermo Fisher Scientific, cat. 12634028), 10 mM HEPES (Thermo Fisher Scientific, cat. 15630080), 1X GlutaMAX supplement (Thermo Fisher Scientific, cat. 35050061), 0.1 mg/mL primocin (InvivoGen, San Diego, CA, cat. ant-pm-2), 10% defined fetal bovine serum, heat inactivated (HyClone Laboratories Inc., Logan, UT, cat. SH30070.03HI), 50% L-WRN conditioned media (ATCC, cat. CRL-3276), 1.25 mM N-Acetyl-L-cysteine (Sigma-Aldrich, cat. A9165), 10 mM nicotinamide (Sigma-Aldrich, cat. N0636), 1X B-27 supplement (Thermo Fisher Scientific, cat. 17504044), 1X N-2 supplement (Thermo Fisher Scientific, cat. 17502048), 50 ng/mL human EGF (Thermo Fisher Scientific, cat. PHG0311), and 10 microM Y-27632 dihydrochloride (Tocris Bioscience, cat. 1254). The K12877-001-R-J1-PDC line was cultured in 6I media, which includes all 6C/Colon 1B media plus 10 ng/mL human FGF-10 (PeproTech, cat. 100-26), 1 ng/mL human FGF-2 (PeproTech, cat. 100-18B), 1 µM prostaglandin E2 (Tocris Bioscience, cat. 2296), […] hydrocortisone (Sigma-Aldrich, cat. H4001), and […] bovine insulin (Sigma-Aldrich, cat. I6634). The K86415-001-R-J1-PDC line was cultured in 6D media, which includes all 6C/Colon 1B media components minus the L-WRN conditioned media. The 485176-168-R4-J1-PDC was cultured in PANC media, which includes all 6C/Colon 1B media plus 100 ng/mL human FGF-10 (PeproTech, cat. 100-26), 500 nM SB-431542 (Selleckchem, cat. S1067), and 10 nM gastrin (Tocris Bioscience, cat. 3006). […]
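Also: spheroids exposed to the agents for seven days before the readout.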

CC1(C)CCC(Nc2ncc(C(F)(F)F)c(-c3c[nH]c4c(P(C)(C)=O)c(C#N)ccc34)n2)CN1 (configuration not stated) + C#Cc1c(F)ccc2cc(O)cc(-c3ncc4c(N5CC6CCC(C5)N6)nc(OCC56CCCN5CC(F)C6)nc4c3F)c12
IC50 (second compound 0.0316 µM): > 300 nM | IC50 (second compound 0.1 µM): > 300 nM | IC50 (second compound 0.316 µM): 2.7 nM | IC50 (second compound 1 µM): < 0.949 nM | IC50 (second compound 3.16 µM): < 0.949 nM | IC50 (second compound 10 µM): < 0.949 nM | viability, T/C (second compound 0.0316 µM, first compound 0.000949 µM): 84.7% | viability, T/C (second compound 0.0316 µM, first compound 0.003 µM): 66.3% | viability, T/C (second compound 0.0316 µM, first compound 0.00949 µM): 62.9% | viability, T/C (second compound 0.0316 µM, first compound 0.03 µM): 61.5% | viability, T/C (second compound 0.0316 µM, first compound 0.0949 µM): 55.3% | viability, T/C (second compound 0.0316 µM, first compound 0.3 µM): 55.6% | viability, T/C (second compound 0.1 µM, first compound 0.000949 µM): 69.9% | viability, T/C (second compound 0.1 µM, first compound 0.003 µM): 64.2% | viability, T/C (second compound 0.1 µM, first compound 0.00949 µM): 59% | viability, T/C (second compound 0.1 µM, first compound 0.03 µM): 56.4% | viability, T/C (second compound 0.1 µM, first compound 0.0949 µM): 72.7% | viability, T/C (second compound 0.1 µM, first compound 0.3 µM): 55.6% | viability, T/C (second compound 0.316 µM, first compound 0.000949 µM): 59.6% | viability, T/C (second compound 0.316 µM, first compound 0.003 µM): 48.3% | viability, T/C (second compound 0.316 µM, first compound 0.00949 µM): 46.9% | viability, T/C (second compound 0.316 µM, first compound 0.03 µM): 47.3% | viability, T/C (second compound 0.316 µM, first compound 0.0949 µM): 44.4% | viability, T/C (second compound 0.316 µM, first compound 0.3 µM): 43.5% | viability, T/C (second compound 1 µM, first compound 0.000949 µM): 37.5% | viability, T/C (second compound 1 µM, first compound 0.003 µM): 36.3% | viability, T/C (second compound 1 µM, first compound 0.00949 µM): 37.1% | viability, T/C (second compound 1 µM, first compound 0.03 µM): 38.1% | viability, T/C (second compound 1 µM, first compound 0.0949 µM): 37.7% | viability, T/C (second compound 1 µM, first compound 0.3 µM): 39.3% | viability, T/C (second compound 3.16 µM, first compound 0.000949 µM): 33.8% | viability, T/C (second compound 3.16 µM, first compound 0.003 µM): 26.8% | viability, T/C (second compound 3.16 µM, first compound 0.00949 µM): 21.6% | viability, T/C (second compound 3.16 µM, first compound 0.03 µM): 22.1% | viability, T/C (second compound 3.16 µM, first compound 0.0949 µM): 27.1% | viability, T/C (second compound 3.16 µM, first compound 0.3 µM): 27.4% | viability, T/C (second compound 10 µM, first compound 0.000949 µM): 26.4% | viability, T/C (second compound 10 µM, first compound 0.003 µM): 20.2% | viability, T/C (second compound 10 µM, first compound 0.00949 µM): 16.7% | viability, T/C (second compound 10 µM, first compound 0.03 µM): 14.1% | viability, T/C (second compound 10 µM, first compound 0.0949 µM): 16.9% | viability, T/C (second compound 10 µM, first compound 0.3 µM): 17.4%
